Results as given in ChEMBL document CHEMBL4819010, “Design, synthesis, and biological studies of novel 3-benzamidobenzoic acid derivatives as farnesoid X receptor partial agonist” (Eur J Med Chem, 2021).
Calls of active or inactive are those of the source. No cut-off for these calls is given here.

Tests used:
[1] = molecular target: T1, Bile acid receptor (Homo sapiens, UniProt Q96RI1); experiment: Agonist activity at FXR-LBD (unknown origin) assessed by ligand binding ability incubated for 3 hrs in absence of light measured by TR-FRET Coactivator assay
T1 sequence (Q96RI1 whole entry): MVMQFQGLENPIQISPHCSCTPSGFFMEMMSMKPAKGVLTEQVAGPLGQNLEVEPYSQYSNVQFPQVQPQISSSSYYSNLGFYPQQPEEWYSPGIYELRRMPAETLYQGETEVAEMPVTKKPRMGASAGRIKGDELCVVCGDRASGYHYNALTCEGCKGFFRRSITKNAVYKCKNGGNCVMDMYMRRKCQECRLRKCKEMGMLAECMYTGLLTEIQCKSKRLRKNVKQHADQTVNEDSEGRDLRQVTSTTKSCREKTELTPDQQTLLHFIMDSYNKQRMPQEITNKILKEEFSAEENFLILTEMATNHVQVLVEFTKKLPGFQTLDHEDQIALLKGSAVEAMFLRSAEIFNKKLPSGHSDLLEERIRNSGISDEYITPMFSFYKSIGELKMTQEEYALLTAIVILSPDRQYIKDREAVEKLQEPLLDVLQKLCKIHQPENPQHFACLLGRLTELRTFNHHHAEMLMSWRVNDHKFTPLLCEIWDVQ

[2] = test system: Mus musculus; experiment: Hepatoprotective activity in APAP-induced C57BL/6 mouse liver injury model assessed as decrease in hepatic degeneration at 30 mg/kg, bid oral gavage for 5 days measured after 12 hrs of APAP injection; format: functional, organism-based; conditions: time 5.0 day
[3] = test system: Mus musculus; experiment: Hepatoprotective activity in APAP-induced C57BL/6 mouse liver injury model assessed as decrease in serum AST levels at 30 mg/kg, bid oral gavage measured after 5 days; format: functional, organism-based; conditions: time 5.0 day
[4] = test system: Mus musculus; experiment: Hepatoprotective activity in APAP-induced C57BL/6 mouse liver injury model assessed as decrease in hepatic haemorrhage at 30 mg/kg, bid oral gavage for 5 days measured after 12 hrs of APAP injection; format: functional, organism-based; conditions: time 5.0 day
[5] = test system: Mus musculus; experiment: Hepatoprotective activity in APAP-induced C57BL/6 mouse liver injury model assessed as decrease in serum ALT levels at 30 mg/kg, bid oral gavage measured after 5 days; format: functional, organism-based; conditions: time 5.0 day
[6] = test system: Mus musculus; experiment: Hepatoprotective activity in APAP-induced C57BL/6 mouse liver injury model assessed as decrease in hepatic necrosis at 30 mg/kg, bid oral gavage for 5 days measured after 12 hrs of APAP injection; format: functional, organism-based; conditions: time 5.0 day
[7] = test system: Mus musculus; experiment: Hepatoprotective activity in APAP-induced C57BL/6 mouse liver injury model assessed as decrease in serum LDH levels at 30 mg/kg, bid oral gavage measured after 5 days; format: functional, organism-based; conditions: time 5.0 day
[8] = Agonist activity at FXR (unknown origin)/human RXR heterodimer expressing in human HepG2 cells co-expressing pCMV gal assessed luciferase activity measured after 24 hrs by cell based luciferase transactivation assay; conditions: HepG2, 24 h
[9] = test system: HepG2; experiment: Agonist activity at FXR (unknown origin)/human RXR heterodimer expressing in human HepG2 cells co-expressing pCMV gal assessed luciferase activity measured after 24 hrs by cell based luciferase transactivation assay relative to […]; conditions: dose 3.0 µM
[10] = test system: Mus musculus; experiment: Hepatoprotective activity in APAP-induced C57BL/6 mouse liver injury model assessed as increase in catalase mRNA expression at 30 mg/kg, bid oral gavage measured after 5 days by qRT-PCR method; format: functional, organism-based; conditions: time 5.0 day
[11] = test system: Mus musculus; experiment: Hepatoprotective activity in APAP-induced C57BL/6 mouse liver injury model assessed as increase in GSH levels at 30 mg/kg, bid oral gavage measured after 5 days; format: functional, organism-based; conditions: time 5.0 day
[12] = molecular target: T2, Bile acid receptor (Mus musculus) (UniProt Q60641); experiment: In vivo agonist activity at FXR in C57BL/6 mouse assessed as increase of UGT1A1 mRNA expression at 30 mg/kg, bid ip measured after 5 days by RT-PCR method; format: functional, organism-based; conditions: time 5.0 day
T2 sequence (whole entry): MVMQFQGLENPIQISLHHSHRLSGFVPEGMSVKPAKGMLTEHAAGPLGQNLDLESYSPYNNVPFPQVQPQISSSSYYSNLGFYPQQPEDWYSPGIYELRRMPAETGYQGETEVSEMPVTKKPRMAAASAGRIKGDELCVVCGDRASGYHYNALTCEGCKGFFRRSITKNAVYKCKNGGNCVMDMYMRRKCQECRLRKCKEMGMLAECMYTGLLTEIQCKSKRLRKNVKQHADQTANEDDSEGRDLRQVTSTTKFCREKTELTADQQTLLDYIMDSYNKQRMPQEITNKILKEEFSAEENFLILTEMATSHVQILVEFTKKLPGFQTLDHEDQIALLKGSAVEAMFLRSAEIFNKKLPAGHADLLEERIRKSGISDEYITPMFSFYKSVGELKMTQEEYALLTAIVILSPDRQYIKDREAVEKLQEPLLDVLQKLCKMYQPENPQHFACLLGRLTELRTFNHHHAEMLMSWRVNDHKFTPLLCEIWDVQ

[13] = test system: Mus musculus; experiment: Hepatoprotective activity in APAP-induced C57BL/6 mouse liver injury model assessed as decrease in […] at 30 mg/kg, bid oral gavage measured after 5 days; format: functional, organism-based; conditions: time 5.0 day
[14] = molecular target: T2, Bile acid receptor (Mus musculus); experiment: In vivo agonist activity at FXR in C57BL/6 mouse assessed as upregulation of IBABP mRNA expression at 30 mg/kg, bid ip measured after 5 days by RT-PCR method; format: functional, organism-based; conditions: time 5.0 day
[15] = molecular target: T2, Bile acid receptor (Mus musculus); experiment: In vivo agonist activity at FXR in C57BL/6 mouse assessed as inhibition of APAP-induced FXR decline at 30 mg/kg, bid ip measured after 5 days by RT-PCR method; format: functional, organism-based; conditions: time 5.0 day
[16] = test system: Mus musculus; experiment: Hepatoprotective activity in APAP-induced C57BL/6 mouse liver injury model assessed as increase in Gclm mRNA expression at 30 mg/kg, bid oral gavage measured after 5 days by qRT-PCR method; format: functional, organism-based; conditions: time 5.0 day
[17] = molecular target: T2, Bile acid receptor (Mus musculus); experiment: In vivo agonist activity at FXR in C57BL/6 mouse assessed as increase of BSEP mRNA expression at 30 mg/kg, bid ip measured after 5 days by RT-PCR method; format: functional, organism-based; conditions: time 5.0 day
[18] = molecular target: T2, Bile acid receptor (Mus musculus); experiment: In vivo agonist activity at FXR in C57BL/6 mouse assessed as decrease of CYP7A1 mRNA expression at 30 mg/kg, bid ip measured after 5 days by RT-PCR method; format: functional, organism-based; conditions: time 5.0 day
[19] = test system: Mus musculus; experiment: Hepatoprotective activity in APAP-induced C57BL/6 mouse liver injury model assessed as increase in SOD1 mRNA expression at 30 mg/kg, bid oral gavage measured after 5 days by qRT-PCR method; format: functional, organism-based; conditions: time 5.0 day
[20] = molecular target: T2, Bile acid receptor (Mus musculus); experiment: In vivo agonist activity at FXR in C57BL/6 mouse assessed as upregulation of SHP mRNA expression at 30 mg/kg, bid ip measured after 5 days by RT-PCR method; format: functional, organism-based; conditions: time 5.0 day
[21] = test system: Mus musculus; experiment: Hepatoprotective activity in APAP-induced C57BL/6 mouse liver injury model assessed as increase in SOD2 mRNA expression at 30 mg/kg, bid oral gavage measured after 5 days by qRT-PCR method; format: functional, organism-based; conditions: time 5.0 day
[22] = molecular target: T2, Bile acid receptor (Mus musculus); experiment: In vivo agonist activity at FXR in C57BL/6 mouse assessed as upregulation of OST beta mRNA expression at 30 mg/kg, bid ip measured after 5 days by RT-PCR method; format: functional, organism-based; conditions: time 5.0 day
[23] = test system: Mus musculus; experiment: Hepatoprotective activity in APAP-induced C57BL/6 mouse liver injury model assessed as increase in Gpx1 mRNA expression at 30 mg/kg, bid oral gavage measured after 5 days by qRT-PCR method; format: functional, organism-based; conditions: time 5.0 day

Structure (SMILES): O=C(O)c1cccc(NC(=O)c2nc(-c3ccccc3)cs2)c1
- EC50 [1]: 2.88 µM

Structure (SMILES): CC(Oc1cccc(NC(=O)c2ccc(Oc3ccccc3)cc2)c1)C(=O)O (stereo not given)
- EC50 [1]: > 10 µM

Structure (SMILES): Cc1cccc(COc2cccc(C(=O)Nc3cccc(C(=O)O)c3)c2)c1
- EC50 [1]: 1.86 µM

Structure (SMILES): COc1cccc(C(=O)Nc2cccc(C(=O)O)c2)c1
- EC50 [1]: 1.03 µM

Structure (SMILES): O=C(O)c1cccc(NC(=O)c2ccc(OCc3ccccc3)cc2)c1
- EC50 [1]: 0.135 µM

Structure (SMILES): O=C(Nc1ccccc1C(=O)O)c1ccc(Oc2ccccc2)cc1
- EC50 [1]: > 10 µM

Structure (SMILES): Cc1ccccc1-c1cccc(COc2ccc(C(=O)Nc3cccc(C(=O)O)c3)cc2)c1
- EC50 [1]: 1.02 µM

Structure (SMILES): COc1ccccc1C(=O)Nc1cccc(C(=O)O)c1
- EC50 [1]: > 10 µM

Structure (SMILES): COc1ccc(C(=O)Nc2cccc(C(=O)O)c2)cc1
- EC50 [1]: 0.607 µM

Structure (SMILES): CCCCOc1cccc(-c2cccc(C(=O)Nc3cccc(C(=O)O)c3)c2)c1
- EC50 [1]: 0.256 µM

Structure (SMILES): Cc1ccc(COc2cccc(C(=O)Nc3cccc(C(=O)O)c3)c2)cc1
- EC50 [1]: 1.42 µM

Structure (SMILES): CCCCCOc1cccc(C(=O)Nc2cccc(C(=O)O)c2)c1
- EC50 [1]: 2.54 µM

Structure (SMILES): O=C(O)c1cccc(NC(=O)c2csc(-c3ccc(C(F)(F)F)cc3)n2)c1
- EC50 [1]: 1.69 µM

Structure (SMILES): Cc1cc(C(=O)Nc2cccc(C(=O)O)c2)nn1-c1ccccc1
- EC50 [1]: > 10 µM

Structure (SMILES): O=C(O)c1cccc(NC(=O)c2ccc(Oc3ccccc3)cc2)c1
- Activity [2]: Active
- EC50 [1]: 0.097 µM
- Activity [3]: Active
- Activity [4]: Active
- Activity [5]: Active
- Activity [6]: Active
- Activity [7]: Active
- EC50 [8]: 0.463 µM
- Activity [9]: 21.2%

Structure (SMILES): CCCCOc1ccc(C(=O)Nc2cccc(C(=O)O)c2)cc1
- EC50 [1]: 0.105 µM

Structure (SMILES): O=C(O)c1ccc(OCc2ccc(OCc3c(-c4c(Cl)cccc4Cl)noc3C3CC3)cc2)cc1
- Activity [2]: Active
- EC50 [1]: 0.265 µM
- Activity [3]: Active
- Activity [4]: Active
- Activity [5]: Active
- Activity [6]: Active
- Activity [7]: Active

Structure (SMILES): Cc1ccccc1-c1cccc(C(=O)Nc2cccc(C(=O)O)c2)c1
- EC50 [1]: 0.068 µM
- EC50 [8]: 0.385 µM
- Activity [9]: 23.1%

Structure (SMILES): CC(C)CCOc1cccc(C(=O)Nc2cccc(C(=O)O)c2)c1
- EC50 [1]: 2.76 µM

Structure (SMILES): Cc1cccc(COc2ccc(C(=O)Nc3cccc(C(=O)O)c3)cc2)c1
- EC50 [1]: 0.259 µM

Structure (SMILES): O=C(O)c1cccc(OCc2ccc(Oc3ccccc3)cc2)c1
- EC50 [1]: > 10 µM

Structure (SMILES): CCOc1cccc(C(=O)Nc2cccc(C(=O)O)c2)c1
- EC50 [1]: 2.35 µM

Structure (SMILES): COc1ccccc1C(=O)Nc1ccc(C)c(C(=O)O)c1
- EC50 [1]: > 10 µM

Structure (SMILES): O=C(O)c1cccc(NC(=O)c2ccc(OCc3cccc(-c4ccccc4)c3)cc2)c1
- EC50 [1]: 0.319 µM

Structure (SMILES): O=C(O)c1cccc(NC(=O)c2cccc(OCc3ccccc3)c2)c1
- EC50 [1]: 1.16 µM

Structure (SMILES): O=C(O)c1cccc(NC(=O)c2cccc(-c3ccccc3)c2)c1
- Activity [10]: Active
- Activity [11]: Active
- Activity [12]: Active
- Activity [2]: Active
- Activity [13]: Active
- Activity [14]: Active
- Activity [15]: Active
- EC50 [1]: 0.025 µM
- Activity [16]: Active
- Activity [3]: Active
- Activity [17]: Active
- Activity [4]: Active
- Activity [18]: Active
- Activity [19]: Active
- Activity [5]: Active
- Activity [6]: Active
- Activity [7]: Active
- Activity [20]: Active
- EC50 [8]: 0.196 µM
- Activity [21]: Active
- Activity [22]: Active
- Activity [23]: Active
- Activity [9]: 28.6%

Structure (SMILES): CCCOc1cccc(C(=O)Nc2cccc(C(=O)O)c2)c1
- EC50 [1]: 2.15 µM

Structure (SMILES): CO/N=C(/COc1ccc(C(=O)Nc2cccc(C(=O)O)c2)cc1)c1ccccc1
- EC50 [1]: > 10 µM

Structure (SMILES): O=C(O)c1cccc(NC(=O)c2cccc(OCC3CC3)c2)c1
- EC50 [1]: 1.26 µM

Structure (SMILES): O=C(O)COc1cccc(NC(=O)c2ccc(Oc3ccccc3)cc2)c1
- EC50 [1]: > 10 µM

Structure (SMILES): Cc1nc(-c2ccc(C(F)(F)F)cc2)sc1C(=O)Nc1cccc(C(=O)O)c1
- EC50 [1]: 0.315 µM

Structure (SMILES): CC(C)CCOc1ccc(C(=O)Nc2cccc(C(=O)O)c2)cc1
- EC50 [1]: 0.215 µM

Structure (SMILES): O=C(O)c1cccc(NC(=O)c2ccc(-c3ccccc3)cc2)c1
- EC50 [1]: > 10 µM

Structure (SMILES): O=C(O)c1ccc(NC(=O)c2ccc(Oc3ccccc3)cc2)cc1
- EC50 [1]: > 10 µM

Structure (SMILES): Cc1ccc(NC(=O)c2ccc(Oc3ccccc3)cc2)cc1C(=O)O
- EC50 [1]: 0.127 µM

Structure (SMILES): Cc1ccc(NC(=O)c2cccc(C(=O)O)c2)cc1
- EC50 [1]: > 10 µM

Structure (SMILES): CC(C)(Oc1cccc(NC(=O)c2ccc(Oc3ccccc3)cc2)c1)C(=O)O
- EC50 [1]: > 10 µM
